Where two headings read alike, the source gives them in different places.
Key:
[1] = test system: Clostridium pasteurianum; details: for Acetate Consumption / Acetate Consumption (percent of starting acetate) / Final Acetate / Final Butanol / Final Butyrate / Glycerol Consumption: 30 g/l glycerol, after 3 days of fermentation
Experimental: LM31 media at pH 7.4 was prepared as follows. All ingredients with the exception of Cysteine-HCl were mixed in 400 ml distilled water. This solution was made anaerobic by heating to boiling and allowing it to cool to room temperature under a constant flow of N2 gas. Once cool, the Cysteine-HCl was added and the pH of the solution adjusted to 7.4 before making the volume up to 1000 ml; anaerobicity was maintained throughout the experiments.
Bacteria: Clostridium pasteurianum were obtained from the German Resource Centre for Biological Material (DSMZ). The accession number given to the bacteria is DSMZ 525.
Incubation was performed in 234 ml sealed serum bottles each containing 50 ml of the media LM31. The 184 ml headspace of each serum bottle was first flushed three times with N2 gas, before being evacuated and filed to an overpressure of 5 psig. Each bottle was inoculated with 1 ml of a Clostridium pasteurianum culture. A shaking incubator was used and the reaction temperature was maintained at 37° C.
Media samples were taken at intervals over a 3 day period. Each time the media was sampled care was taken to ensure that no gas was allowed to enter into or escape from the serum bottle.
All samples were used to establish the absorbancy at 600 nm (spectrophotometer) and the level of substrates and products (GC or HPLC). HPLC was routinely used to quantify the level of glycerol, methanol, acetate, and ethanol. When n-butyric acid and butanol were present, GC was used in combination with HPLC to quantify the levels of all substrates and products (glycerol, acids and alcohols).
The aim was to test the effect of initial acetate concentration on glycerol fermentation by Clostridium pasteurianum to produce butanol.

[2] = test system: Clostridium pasteurianum; assay: Effect of methanol on the fermentation of glycerol to butanol (serum bottle); type: cell-based; details: for Acetate Consumption / Final Butanol / Final Butyrate / Glycerol Consumption: 30 g/l glycerol, 2 g/l acetate, after 36 hours of fermentation
From the text: In this experiment, the effect of methanol on the conversion of commercial glycerol to butanol was studied. […] In addition, acetate and glycerol consumption decreased.

[3] = test system: Clostridium pasteurianum; assay: Comparison of fermentation of commercial glycerol and glycerol from biodiesel waste for butanol production; type: cell-based; details: 30 g/l commercial glycerol, 2 g/l acetate, after 36 hours of fermentation
Experimental: Thirty grams biodiesel waste was dissolved in water up to 100 ml and stirred until the solution was homogenous. While stirring, 10% Hydrochloric acid solution was added until pH was below 3.0, so total coagulation of free fatty acid would occur. In order to improve the phase separation, the sample was centrifuged for 1 minute at 4,000 g. At this stage 3 phases could be seen: the top layer appeared oily and contained mostly FAME (Fatty acid methyl ester); the middle phase contained mostly coagulated free fatty acids; and, the bottom phase (aqueous phase) was clear and contained mostly water, glycerol and methanol. The aqueous phase was withdrawn carefully, filtered on a 0.2 μm filter and pH was then raised to pH 7.0 by addition of Sodium hydroxide. At this stage, methanol was evaporated by heating the solution under stirring and vacuum maintained with a water-jet. Finally water can be added in order to dilute the glycerol solution.
The aim of this experiment was to test the glycerol obtained from biodiesel waste, in a fermentation with Clostridium pasteurianum to produce butanol, in the presence of 2 g/l acetate initial concentration. The conversion of commercial glycerol (first row) was compared with glycerol obtained from biodiesel waste containing methanol (second row) or where methanol was evaporated (last row). […] Levels of butanol and biomass were the highest for bacteria growing on glycerol obtained from biodiesel, where methanol was evaporated. Acetate (50%) was also consumed.

In the case of `CC(=O)O` [Acetate, Acetic acid, glacial, 99.8%], the “Acetate Consumption” value ([1]; starting acetate 1.4 g/l) is reported as 0.4 g/L, the “Acetate Consumption (percent of starting acetate)” value ([1]; starting acetate 1.4 g/l) is reported as 28% and the “Final Acetate” value ([1]; starting acetate 1.4 g/l) is reported as 1.0 g/L. For the same compound, the “Final Butanol” value ([1]; starting acetate 1.4 g/l) was 3.0 g/L, the “Final Butyrate” value ([1]; starting acetate 1.4 g/l) was 0.5 g/L and the “Glycerol Consumption” value ([1]; starting acetate 1.4 g/l) was 12 g/L. The “Acetate Consumption” value ([1]; starting acetate 2.2 g/l) was 1.0 g/L, the “Acetate Consumption (percent of starting acetate)” value ([1]; starting acetate 2.2 g/l) was 45% and the “Final Acetate” value ([1]; starting acetate 2.2 g/l) was 1.2 g/L. For the same compound, the “Final Butanol” value ([1]; starting acetate 2.2 g/l) was 3.5 g/L, the “Final Butyrate” value ([1]; starting acetate 2.2 g/l) was 0.7 g/L and the “Glycerol Consumption” value ([1]; starting acetate 2.2 g/l) was 13 g/L. For the same compound, the “Acetate Consumption” value ([1]; starting acetate 3.5 g/l) was 1.6 g/L, the “Acetate Consumption (percent of starting acetate)” value ([1]; starting acetate 3.5 g/l) was 45% and the “Final Acetate” value ([1]; starting acetate 3.5 g/l) was 1.9 g/L. For the same compound, the “Final Butanol” value ([1]; starting acetate 3.5 g/l) was 3.1 g/L, the “Final Butyrate” value ([1]; starting acetate 3.5 g/l) was 1.1 g/L and the “Glycerol Consumption” value ([1]; starting acetate 3.5 g/l) was 12 g/L. For the same compound, the “acetate consumed in the course of the reaction” value ([1]; increasing amounts of acetate added at the start of the fermentation) was “up to 45%”.
For `CO` [Methanol], the “Acetate Consumption” value ([2]; starting methanol 5.6 g/l) was 0.8 g/L, the “Final Butanol” value ([2]; starting methanol 5.6 g/l) was 2.4 g/L and the “Final Butyrate” value ([2]; starting methanol 5.6 g/l) was 0.8 g/L. For the same compound, the “Glycerol Consumption” value ([2]; starting methanol 5.6 g/l) was 14 g/L, the “Acetate Consumption” value ([2]; starting methanol 11.2 g/l) was 0.8 g/L and the “Final Butanol” value ([2]; starting methanol 11.2 g/l) was 2.0 g/L. The “Final Butyrate” value ([2]; starting methanol 11.2 g/l) was 0.6 g/L, the “Glycerol Consumption” value ([2]; starting methanol 11.2 g/l) was 13 g/L and the “Acetate Consumption” value ([2]; starting methanol 16.3 g/l) was 0.6 g/L. The “Final Butanol” value ([2]; starting methanol 16.3 g/l) was 1.1 g/L, the “Final Butyrate” value ([2]; starting methanol 16.3 g/l) was 0.6 g/L and the “Glycerol Consumption” value ([2]; starting methanol 16.3 g/l) was 11 g/L. The “effect on the bacteria and butanol production” value ([2]; increasing amounts of methanol, commercial glycerol) was “increasing inhibitory effect”.
`OCC(O)CO` [commercial glycerol, glycerol] was tested, and the “Acetate Consumption” value [3] was 1.0 g/L, the “Acetate Consumption (percent)” value [3] was 50% and the “Final Butanol” value [3] was 2.9 g/L. For the same compound, the “Final Butyrate” value [3] was 0.7 g/L and the “Glycerol Consumption” value [3] was 15 g/L.
